Test system: Cyp1a2
Assay: Cytochrome P450 activity (P450-Glo Assay, induction of Cyp1a2)
Conditions: mouse iPS-derived hepatocyte-like cells kept in final maturation medium until day 42; incubation with 100 μM phenobarbital
Protocol: Cytochrome P450 activity. Cytochrome […] activity was detected by using the non-lytic method of P450-Glo™ Assay (Promega V8771). Mouse iPS cells were incubated with luminogenic substrate (Luciferin-ME) for 4 hours at 37° C. 50 μl was mixed with 50 μl Luciferin Detection Reagent in triplicate. Mean luminescence was calculated from 11 consecutive time points with 2 minutes interval. Induction of Cyp1a2 was performed by incubation with 100 μM phenobarbital.

CCC1(c2ccccc2)C(=O)NC(=O)NC1=O [phenobarbital]
increase of Cyp1a2 activity: 45%

— US9777258B2, “Methods for differentiating cells into hepatic stellate cells and hepatic sinusoidal endothelial cells, cells produced by the method, and methods for using the cells” (Katholieke Universiteit Leuven, priority 2010, dated 2017)
